Drawing on ChEMBL document CHEMBL1156496 (J Biol Chem, 2007), this text covers IC50 and Kd for one molecule.

Assay [1] is described as follows: Inhibition of complement component C3c.
A short description of assay [2]: Binding affinity to complement component C3c in human plasma. In kind it is cell-free.

`CC[C@H](C)[C@H](N)C(=O)N[C@H]1CSSC[C@@H](C(=O)N[C@H](C(N)=O)[C@@H](C)O)NC(=O)[C@H](CCCNC(=N)N)NC(=O)[C@H](Cc2cnc[nH]2)NC(=O)[C@H](Cc2cnc[nH]2)NC(=O)CNC(=O)[C@H](Cc2c[nH]c3ccccc23)NC(=O)[C@H](CC(=O)O)NC(=O)[C@H](CCC(N)=O)NC(=O)[C@H](C(C)C)NC(=O)[C@H](C(C)C)NC1=O` [COMPSTATIN]: the IC50 (usually the point on the concentration scale where inhibition reaches its midpoint) in assay [1] was 12 µM. The Kd – broadly, the equilibrium constant for the complex coming apart – in assay [2] was determined as 0.39 µM.
